Source: PubChem BioAssay AID2305 (GlaxoSmithKline (GSK), 2010)

tested on: P. falciparum 3D7 growth, pLDH absorbance; assay: P. falciparum 3D7 growth inhibition, dose response, strain 3D7 (AID 2305)

In order of rising IC50:
1. Cc1c(O)cccc1Nc1ccnc2ccc(C(F)(F)F)cc12  30 nM
2. N=C(N)c1ccc(C=CC(=O)NCC(O)CNC(=O)C=Cc2ccc(C(=N)N)cc2)cc1 (stereo not given)  30 nM
3. CN(C)CC(=O)Nc1ccc(-c2ccc3ccnc(N)c3c2)cc1  30 nM
4. CCc1cn2c3c(cc(C(=O)N[C@@H](Cc4cccc(Cl)c4)[C@H](O)CNC4CCOCC4)cc13)N(C)S(=O)(=O)CC2  40 nM
5. N=C(N)c1ccc(-c2cc3ccc(C(=N)N)cc3[nH]2)cc1  60 nM
6. FC(F)(F)c1ccc2nc(-c3ccc(-c4ccc(CN5CCN(c6ccncc6)CC5)cc4)cc3)[nH]c2c1  60 nM
7. CC(=O)Nc1cccc(-c2cn(-c3ccc(OCc4cccc(F)c4)c(Cl)c3)c3ncncc23)c1  70 nM
8. CCN1CCN(CCCNc2ccnc3cc(Cl)ccc23)CC1  70 nM
9. CCc1nc(N)nc(N)c1CCCOc1ccccc1Cl  100 nM
10. FC(F)(F)c1cccc(-c2cc(NCCCn3ccnc3)nc(-c3ccncc3)n2)c1  110 nM
11. c1ccc2c(NCCCCCCCCCNc3ccnc4ccccc34)ccnc2c1  120 nM
12. CC(=O)NCCNc1nccc(N2CCc3ncnc(Nc4ccc(OCc5cccc(F)c5)c(Cl)c4)c3C2)n1  130 nM
13. COc1cc2nc(Nc3ccc(C)cc3)nc(Nc3ccc(C)cc3)c2cc1OC  140 nM
14. CCC(CN1C(=O)C(c2ccccc2)(c2ccccc2)N=C1N)c1ccccc1 (stereo not given)  140 nM
15. CC(C)(CNCc1ccc(C(F)(F)F)cc1)c1nc(-c2ccc(Cl)c(O)c2)c(-c2ccnc(N)n2)[nH]1  150 nM
16. COc1ccc2nc(-c3ccccc3)cc(NN=Cc3ccc([N+](=O)[O-])cc3)c2c1  150 nM
17. Cc1ccc(OCCCCONC(=O)c2ccccc2)cc1  150 nM
18. CCc1ccc(C2CCN(CCCCNC(=O)c3ccc(NC(=O)c4ccc(Cl)cc4)cc3)CC2)c(OC(C)=O)c1  150 nM
19. CC(C)NCc1ccc(-c2ccc(-c3nc4ccc(F)cc4[nH]3)cc2)cc1  210 nM
20. COc1ccc(CNCc2ccc(-c3ccc(-c4nc5ccccc5[nH]4)cc3)cc2)cc1  240 nM
21. CCN(CC)CCCN(C(=O)Nc1c(Cl)cncc1Cl)c1nc(-c2ccc(F)cc2)cs1  240 nM
22. CCNc1cc(C(=O)N[C@@H](Cc2ccccc2)[C@H](O)CNC(C)(C)CSCC(C)C)cc(N2CCCC2=O)c1  260 nM
23. CN1CC(c2ccc(Cl)c(Cl)c2)OC1=N (stereo not given)  280 nM
24. Cc1cc(C(=O)Nc2ccc3c(c2)CCN3C2CCN(Cc3cc(F)cc(F)c3F)C2)no1 (stereo not given)  280 nM
25. CC(C)(C)OC(=O)Cn1cnc2cc(NC(=O)c3cc([N+](=O)[O-])cc([N+](=O)[O-])c3)ccc21  310 nM
26. Cc1ccc(-c2cccc3c(NC(=O)Nc4ccc5nccc(N6CCN(C)CC6)c5c4)cccc23)cn1  350 nM
27. COc1ccc2c(c1)nc(CN=C(N)N)n2Cc1ccc(Cl)cc1  360 nM
28. CC(=O)Nc1ccc(Nc2ncc([N+](=O)[O-])c(Nc3ccccc3C(N)=O)n2)cc1  370 nM
29. COc1ccc(NC(=O)Nc2ccc(Nc3nc(C)cc(N(C)C)n3)cc2)cc1  450 nM
30. O=C(NCc1ccco1)c1ccc(S(=O)(=O)c2ccc(Cl)cc2)cc1  450 nM
31. CC(=O)N1N=C(c2ccc(Cl)cc2)Sc2c1nc(-c1ccccc1)n2C(C)=O  490 nM
32. CC(Nc1nc(Nc2ccc(F)cc2)nc(SCC(N)=O)n1)c1ccccc1 (stereo not given)  500 nM
33. CC(C)[C@H](NC(=O)c1c(F)cccc1F)C(=O)Nc1ccc(Cc2nc3ccccc3s2)cc1  500 nM
34. CCN1CCN(c2cc(C)c3cc(NC(=O)c4cccc([N+](=O)[O-])c4)ccc3n2)CC1  520 nM
35. CCCN1CCN(CCCNc2c3ccccc3nc3ccccc23)CC1  550 nM
36. CS(=O)(=O)CCNCc1ccc(-c2ccc3ncnc(Nc4ccc(OCc5ccccc5)c(Cl)c4)c3c2)o1  560 nM
37. Cc1nnsc1C(=O)Nc1ccc(-c2ccc(-c3nc4c(C)cccc4[nH]3)s2)cc1  590 nM
38. O=C1CCCN1CCCNCc1cccc(-c2cccc(-c3nc4ccc(F)cc4[nH]3)c2)c1  600 nM
39. CN(C)C(CNC(=O)c1cc(-c2ccncc2)c(-c2ccc(NC(=O)Nc3ccccc3)cc2)o1)c1ccccc1 (stereo not given)  600 nM
40. Cc1cc(Nc2ccc(Oc3ccc(Cl)cc3)cc2)nc(N)n1  620 nM
41. COc1cc2c(cc1C(F)(F)F)N(C(=O)Nc1cc(-c3ccncc3)cc(-c3cccnc3)c1)CC2  620 nM
42. CC(=O)N1N=C(c2ccc(F)cc2)Sc2c1nc(-c1ccccc1)n2C(C)=O  650 nM
43. Cc1cc(O)c(CN(C)Cc2ccc3c(c2)OCCO3)cc1C(C)C  670 nM
44. Cc1cn(CC(=O)Nc2cccc(-c3cccc(-c4nc5ccc(C(F)(F)F)cc5[nH]4)c3)c2)c(=O)[nH]c1=O  680 nM
45. CNCCNCc1cccc(-c2ccc(-c3nc4ccc(C(F)(F)F)cc4[nH]3)cc2)c1  690 nM
46. COc1cc(CNCCCCCCNCc2cc(OC)c3ccccc3c2OC)c(OC)c2ccccc12  700 nM
47. OC(CN1CCN(Cc2ccccc2)CC1)Cn1c(-c2ccccc2)c(-c2ccccc2)c2ccccc21 (stereo not given)  710 nM
48. COc1ccccc1N1CCN(c2cccc3c2nc(-c2cncc(C#N)c2)n3CCNCc2ccccc2)CC1  710 nM
49. CCN(CCCNc1nc(=S)[nH]c2cc(OC)c(OC)cc12)c1ccccc1  720 nM
50. FC(F)(F)c1cccc(Nc2nc(-n3ccnc3)nc(-n3ccnc3)n2)c1  720 nM
51. NCC1(c2nc(-c3ccc(Cl)c(O)c3)c(-c3ccncc3)[nH]2)CCCCC1  740 nM
52. Cn1nc(-c2ccc(NC(=O)Nc3cc(C(F)(F)F)ccc3F)c(F)c2)c2cnc(NCCCn3ccnc3)nc21  740 nM
53. O=C(/C=C/c1ccc(Cl)c(Cl)c1)NCCCCCN1CCC(C(=O)Nc2ccc(Cl)cc2)CC1  780 nM
54. COc1ccc(C2NCCc3c2[nH]c2ccccc32)cc1CN1CCN(c2ccc(F)cc2)CC1 (stereo not given)  780 nM
55. FC(F)(F)c1ccc2nccc(NN=Cc3ccc(Cl)cc3)c2c1  790 nM
56. COc1ccc(CNCc2ccc(F)cc2)cc1-c1ccc(OC)c(S(=O)(=O)NCCN2CCCC2)c1  790 nM
57. CC(CCNc1c2ccccc2nc2ccccc12)N1CCN(C)CC1 (stereo not given)  800 nM
58. CCC(CC)C(CC(=O)NC(C)(C)CCc1ccccc1OC)Nc1ccc(C#N)c2ccccc12 (stereo not given)  800 nM
59. CC(C)CN(Cc1c(O)ccc2[nH]c(-c3ccc(F)cc3F)nc12)CC(C)C  800 nM
60. COc1ccc2ncc(OC)c(CCN3CC[C@@H](NCc4ccc5c(n4)NC(=O)CS5)[C@H](O)C3)c2n1  830 nM
61. COc1ccc2nccc(NCC3(O)CCN(CC(O)c4ccc5c(c4)NC(=O)CS5)CC3)c2n1 (stereo not given)  830 nM
62. Cc1cc2ncn(-c3ccnc(N4CCN(CCCN5CCCC5)CC4)n3)c2cc1C  830 nM
63. COc1ccc(-c2cnc3ccc(NCc4ccc(F)cc4)nn23)cc1OC  830 nM
64. Cc1[nH]c(C)c(-c2ccc(Br)cc2)c(=O)c1Cl  840 nM
65. O=C(/C=C/c1ccc(Cl)c(Cl)c1)NCCCCN1CCCN(C(=O)Nc2ccc(Cl)c(Cl)c2)CC1  860 nM
66. CCOc1ccc2c(NN=Cc3cccc(Cl)c3)cc(C)nc2c1  860 nM
67. Cc1ccc(NC(=O)c2ccc(CN3CCCN(Cc4cccc(O)c4)CC3)cc2)cc1C  860 nM
68. CC(NC(=O)c1ccc(O)c(-c2ccc(Cl)c(Cl)c2)c1)C(=O)NCCN1CCCCC1 (stereo not given)  870 nM
69. Cc1cccc(CNc2nc(C)cc(NCCC(=O)NCCOc3ccccc3)n2)c1  870 nM
70. NC1=Nc2ccc(Cl)cc2C1(O)c1ccccc1 (stereo not given)  880 nM
71. Nc1nc(N)c2c(Oc3cccnc3)cccc2n1  890 nM
72. Cc1cc(N[C@@H](CC(C)C)C(=O)Nc2ccccc2)nc(NCCc2ccccc2)n1  890 nM
73. Cc1nc(-c2cccc(Nc3nccc(NCC(O)c4ccccc4C)n3)c2)cs1 (stereo not given)  890 nM
74. COc1ccc(Nc2nccc(N3CCC(NC(=O)Nc4cc(C)ccc4C)C3)n2)cc1 (stereo not given)  900 nM
75. CC(C)(CNC(=O)/C=C/c1ccc(C(F)(F)F)cc1)CNc1cc(=O)c2ccccc2[nH]1  910 nM
76. Oc1c(C=Nn2cnnc2)sc2ccccc12  910 nM
77. CN1CCc2ccc(NC(=O)Nc3cccc(C(=O)c4ccccc4)c3)cc2C1  920 nM
78. C[C@@H]1CN(c2cnn(Cc3ccc(NC(=O)Nc4cccc(C(F)(F)F)c4)cc3)c(=O)c2Cl)C[C@H](C)N1  940 nM
79. CCCc1cc(C(=O)N[C@@H](Cc2ccccc2)[C@H](O)CNC(C)C)c(F)c(N2CCCC2=O)c1  940 nM
80. O=C(Nc1cccc(-c2cc(-c3c(Cl)cccc3Cl)no2)c1)c1cncc(-c2cccs2)c1  950 nM
81. Cc1cc(C)c(NC(=O)N[C@H]2CCN(CCCCCNC(=O)/C=C/c3ccc(Cl)c(Cl)c3)C2)c(C)c1  950 nM
82. CON=Cc1sc(CNCCCNc2cc(=O)c3ccccc3[nH]2)c(C)c1Br  960 nM
83. CCN1CCN(c2cc(C)c3cc(NC(=O)c4ccc(N(CC)CC)cc4)ccc3n2)CC1  960 nM
84. Cc1ccc(C(c2nnnn2C2CCCC2)N(Cc2ccco2)Cc2ccccc2Cl)cc1 (stereo not given)  960 nM
85. COc1cc(CS(C)(=O)=O)ccc1Nc1nccc(-c2c(-c3cccc(NC(=O)c4c(F)cccc4F)c3)nn3ccccc23)n1  970 nM
86. O=C(Nc1nc(-c2ccccn2)cs1)c1ccccc1COc1ccccc1  970 nM
87. Cc1cc(-c2ccc(CN3Cc4ccccc4C3)cc2)ccc1S(=O)(=O)NCCN1CCCC1  970 nM
88. CCN(CC)CCN(Cc1ccc(-c2ccc(C(F)(F)F)cc2)cc1)C(=O)Cn1c(SCc2ccc(F)cc2)nc(=O)c2sccc21  990 nM
89. COc1ccc(Oc2ccc(Nc3ccnc4ccc(C(F)(F)F)cc34)cc2)cc1OC  1060 nM
90. COc1cccc(C(NC(=O)c2ccccc2)c2ccc3cccnc3c2O)c1 (stereo not given)  1080 nM
91. N#Cc1cc(C(=O)Nc2ccccc2)c(N)nc1SCC(=O)Nc1ccc(Br)cc1  1100 nM
92. CC(=O)Nc1ccc(C2NC(=O)NC(c3ccccc3)=C2c2nc3ccccc3s2)cc1 (stereo not given)  1110 nM
93. CCC1CCc2cc(N)cc(-c3nc4c(c(C)nn4CC)c(=O)[nH]3)c2O1 (stereo not given)  1120 nM
94. O=C(Nc1cccc([N+](=O)[O-])c1)Nc1ccc(Cl)c(C(F)(F)F)c1  1120 nM
95. Cc1ccc2nc(Cl)c3cc(C(=O)NCCCN4CCCC4)sc3c2c1  1140 nM
96. CCN(CC)CCCSc1ccc(-c2ccc(SCCCN(CC)CC)cc2)cc1  1160 nM
97. Cc1cc(Nc2ccc(C(C)(C)C)cc2)c2[nH]ncc2n1  1160 nM
98. Cc1cnc(C(=O)Nc2ccc3c(c2)CCCN(Cc2c[nH]c4cnccc24)C3)cn1  1230 nM
99. CN(C)c1ccc(CN2CCC(CNC(=O)c3cc(-c4ccccc4Cl)cs3)C2)cc1 (stereo not given)  1440 nM
100. O=C(Nc1ccc(-c2nc3ccccc3[nH]2)cc1)C1CCN(Cc2ccccc2)CC1  1760 nM
